Data reported in paper PMC6980355 (Journal of medicinal chemistry, 2019).
≈ marks a conversion by molar mass, not a printed value.

Key:
E. coli (ΔtolC) = format: cell-based; settings: for MIC E. coli (ΔtolC): knockout of efflux pump component TolC; for MIC E. coli (ΔtolC) +PMBN: PMBN 8 μg/mL
[1] = system: P. aeruginosa (ΔmexAB, etc.); format: cell-based; settings: knockouts of MexAB-OprM, MexCD-OprJ, MexEF-OprN
pKa = format: physicochemical
[2] = system: P. aeruginosa mexT mutants; format: cell-based; settings: for potency reduction by any mexT mutation: any of the three individual mexT mutations
E. coli (ATCC 25922) = test: Bacterial Cytological Profiling; format: cell-based; settings: ~3-fold the MIC for 2 hours (for 1); fluorescence microscopy
P. aeruginosa BC = P. aeruginosa BC (Pseudomonas aeruginosa, UniProt P37798); test: P. aeruginosa BC enzyme assay; settings: relative to parent 4a
Sequence of P. aeruginosa BC (P37798 whole entry): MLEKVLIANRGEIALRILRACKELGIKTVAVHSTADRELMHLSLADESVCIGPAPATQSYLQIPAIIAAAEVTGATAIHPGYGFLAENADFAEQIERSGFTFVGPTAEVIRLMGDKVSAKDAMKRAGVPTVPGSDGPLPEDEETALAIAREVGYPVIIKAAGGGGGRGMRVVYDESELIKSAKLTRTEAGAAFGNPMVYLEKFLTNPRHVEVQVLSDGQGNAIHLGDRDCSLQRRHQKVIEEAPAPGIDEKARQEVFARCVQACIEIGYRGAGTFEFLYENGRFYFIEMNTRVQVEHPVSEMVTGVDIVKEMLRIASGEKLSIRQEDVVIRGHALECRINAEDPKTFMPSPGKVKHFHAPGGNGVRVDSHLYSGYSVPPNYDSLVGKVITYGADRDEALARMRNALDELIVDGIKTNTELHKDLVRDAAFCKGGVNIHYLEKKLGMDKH

Row | Compound | MIC E. coli (ΔtolC) (E. coli (ΔtolC)) [µg/mL] | MIC E. coli (ΔtolC) +PMBN (E. coli (ΔtolC)) [µg/mL] | MIC P. aeruginosa (ΔmexAB, etc.) [1] [µg/mL] | further results
1 | Nc1ncc2cc(-c3c(Br)cccc3Br)c(N)nc2n1 [compound 1, reference compound] | 0.5 (≈ 1.27 µM) | 0.12 (≈ 0.304 µM) | 16 (≈ 40.5 µM) | pKa (pKa): 4.8; potency reduction by any mexT mutation [2]: > 8 fold
2 | Nc1ncc2cc(-c3c(Cl)cccc3Cl)c(N)nc2n1 [4a] | 0.5 (≈ 1.63 µM) | 0.25 (≈ 0.817 µM) | 16 (≈ 52.3 µM) | 
3 | NCC1(F)CCN(c2nc3nc(N)ncc3cc2-c2c(Cl)cccc2Cl)C1 (stereo not drawn) [13d, 7-[3-(aminomethyl)-3-fluoro-pyrrolidin-1-yl]-6-(2,6-dichlorophenyl)pyrido[2,3-d]pyrimidin-2-amine] |  | 1 (≈ 2.46 µM) |  | 
4 | Nc1ncc2cc(-c3c(Cl)cccc3-c3cccnc3)c(N3C[C@@H]4[C@@H](N)[C@@H]4C3)nc2n1 [14a, 7-[(1R,5S)-6-amino-3-azabicyclo[3.1.0]hexan-3-yl)-6-[2-chloro-6-(3-pyridyl)phenyl]pyrido[2,3-d]pyrimidin-2-amine] | 0.03 (≈ 0.0698 µM) |  |  | potency reduction by any mexT mutation [2]: unaffected
5 | Nc1ncc2cc(-c3c(Cl)cccc3-c3cccnc3)c(N)nc2n1 [4d, 6-[2-chloro-6-(3-pyridyl)phenyl]pyrido[2,3-d]pyrimidine-2,7-diamine] |  |  | 4 (≈ 11.5 µM) | 
6 | CC(C)COc1cccc(Cl)c1-c1cc2cnc(N)nc2nc1N [4f, 6-(2-chloro-6-isobutoxy-phenyl)pyrido[2,3-d]pyrimidine-2,7-diamine] | 0.25 (≈ 0.727 µM) |  |  | 
7 | NCC1CCN(c2nc3nc(N)ncc3cc2-c2c(Cl)cccc2Cl)C1 (stereo not drawn) [13f, 7-[3-(aminomethyl)pyrrolidin-1-yl]-6-(2,6-dichlorophenyl)pyrido[2,3-d]pyrimidin-2-amine] |  |  |  | cytological profile (E. coli (ATCC 25922)): cytological profiles very similar to each other and to parent compound 1; improvement in BC inhibition (IC50) compared to 4a (P. aeruginosa BC): 5 fold
8 | COc1ncc(-c2cccc(Cl)c2-c2cc3cnc(N)nc3nc2N2C[C@@H]3[C@@H](N)[C@@H]3C2)cc1F [14c, 7-[(1R,5S)-6-amino-3-azabicyclo[3.1.0]hexan-3-yl)-6-[2-chloro-6-(5-fluoro-6-methoxy-3-pyridyl)phenyl]pyrido[2,3-d]pyrimidin-2-amine] | 0.015 (≈ 0.0314 µM) | 0.008 (≈ 0.0167 µM) | 2 (≈ 4.18 µM) | 
9 | Nc1ncc2cc(-c3ccccc3-c3ccccc3)c(N)nc2n1 [4b, 6-([1,1'-biphenyl]-2-yl)pyrido[2,3-d]pyrimidine-2,7-diamine] | 0.5 (≈ 1.6 µM) | 0.25 (≈ 0.798 µM) |  | 
10 | Nc1ncc2cc(-c3c(Cl)cccc3-c3ccncc3)c(N3C[C@@H]4[C@@H](N)[C@@H]4C3)nc2n1 [14b, 7-[(1R,5S)-6-amino-3-azabicyclo[3.1.0]hexan-3-yl)-6-[2-chloro-6-(4-pyridyl)phenyl]pyrido[2,3-d]pyrimidin-2-amine] | 0.03 (≈ 0.0698 µM) | 0.015 (≈ 0.0349 µM) | 2 (≈ 4.65 µM) | 
11 | NCC1(O)CCN(c2nc3nc(N)ncc3cc2-c2c(Cl)cccc2Cl)C1 (stereo not drawn) [13e, 1-[2-amino-6-(2,6-dichlorophenyl)pyrido[2,3-d]pyrimidin-7-yl]-3-(aminomethyl)pyrrolidin-3-ol] | 1 (≈ 2.47 µM) |  | >64 | 
12 | Cc1ncc(-c2cccc(Cl)c2-c2cc3cnc(N)nc3nc2N2C[C@@H]3[C@@H](N)[C@@H]3C2)s1 [14d, 7-[(1R,5S)-6-amino-3-azabicyclo[3.1.0]hexan-3-yl)-6-[2-chloro-6-(2-methylthiazol-5-yl)phenyl]pyrido[2,3-d]pyrimidin-2-amine] | 0.008 (≈ 0.0178 µM) |  | 1 (≈ 2.22 µM) | 
13 | Nc1ncc2cc(-c3c(Cl)cccc3Cl)c(N3CCC(N)(CO)C3)nc2n1 (stereo not drawn) [13c, [3-amino-1-[2-amino-6-(2,6-dichlorophenyl)pyrido[2,3-d]pyrimidin-7-yl]pyrrolidin-3-yl]methanol] | 1 (≈ 2.47 µM) |  |  | 
14 | Nc1ncc2cc(-c3ccccc3-c3cccnc3)c(N)nc2n1 [4c, 6-[2-(3-pyridyl)phenyl]pyrido[2,3-d]pyrimidine-2,7-diamine] | 2 (≈ 6.36 µM) | 0.5 (≈ 1.59 µM) | 16 (≈ 50.9 µM) | 
15 | O=C(O)c1cn(C2CC2)c2cc(N3CCNCC3)c(F)cc2c1=O [ciprofloxacin, reference compound] |  |  |  | resistance of mexT mutants to the antibiotic ([2]; data not shown): elevated resistance
16 | Nc1ncc2cc(-c3c(Cl)cccc3Cl)c(N3C[C@@H]4[C@@H](N)[C@@H]4C3)nc2n1 [13h, 7-((1R,5S,6s)-6-amino-3-azabicyclo[3.1.0]hexan-3-yl)-6-(2,6-dichlorophenyl)pyrido[2,3-d]pyrimidin-2-amine] |  |  |  | improvement in BC inhibition (IC50) compared to 4a (P. aeruginosa BC): ~10 fold
17 | NCC1CCN(c2nc3nc(N)ncc3cc2-c2c(Cl)cccc2Cl)CC1 [13g, 7-[4-(aminomethyl)-1-piperidyl]-6-(2,6-dichlorophenyl)pyrido[2,3-d]pyrimidin-2-amine] | 1 (≈ 2.48 µM) |  | 64 (≈ 159 µM) | 
18 | CC(C)COc1cccc(Cl)c1-c1cc2cnc(N)nc2nc1N1C[C@@H]2[C@@H](N)[C@@H]2C1 [14e, 7-[(1R,5S)-6-amino-3-azabicyclo[3.1.0]hexan-3-yl)-6-(2-chloro-6-isobutoxy-phenyl)pyrido[2,3-d]pyrimidin-2-amine] | 0.03 (≈ 0.0706 µM) | 0.015 (≈ 0.0353 µM) |  | potency reduction by any mexT mutation [2]: unaffected; cytological profile (E. coli (ATCC 25922)): cytological profiles very similar to each other and to parent compound 1
